# What was measured:
# Format in all cases: physicochemical
# [1] = Solubility test of the additive alone in dichloromethane/methanol mixed solvent (visual, after 4 days); conditions: for Solubility S0 (solids weight concentration at the dissolution limit): CH2Cl2/CH3OH 87/13
# Protocol: The solubility of the functional additives was measured as follows.
# 1. Solutions were prepared by adjusting each concentration in a 50 cc screw cap bottle.
# 2. Allowed to stand at room temperature for 4 days. Here, the results of the solubility changed between 1 day and 4 days in some cases, and evaluation of the solubility was carried out after 4 days as a time when equilibrium was reached.
# 3. Samples were prepared in the same manner at other temperatures (20° C., 35° C.), and the solubility after allowing to stand for 4 days was visually inspected.
# Predetermined amounts of Example Compounds I-(51) and I-(2) were weighed into a mixed solvent of dichloromethane and methanol, and the solubility was measured by changing the mixing ratio of the organic solvents.
# The solubility (solids weight concentration at the dissolution limit was calculated as (C1+C2)/2 when the concentration limit at which it could be dissolved was C1 and the concentration limit at which it could not be dissolved was C2) of the retardation control agent in a mixed solvent having an initial methylene chloride/methanol composition ratio of 87/13 was defined as S0, and the solubility of the retardation control agent when the solvent composition changed, during drying, to 74/26 where the methanol wt % was the maximum was defined as S1. The temperature at which the solubility was measured is denoted by the figure in brackets.
# [2] = as above
# [3] = Measurement of micro heat of solution (multi-purpose calorimeter MPC-110); conditions: for Degree of stabilization: Table 15; for Heat of solution ΔH0: solvent alone, 26.0° C.
# Protocol: (2 Measurement of Micro Heat of Solution)
# The heat of solution (dissolution enthalpy ΔH) of functional additives was measured as follows, using a multi-purpose calorimeter (MPC-110) manufactured by Tokyo Rikou as a micro heat of solution measuring instrument.
# 1. Solvent liquids and concentrated solutions were prepared beforehand in 1 L bottles.
# 2. Preparation of ampoule tubes
# (1) Additives (powdered solid) were ground by a mortar and the granules were made uniform.
# (2) A required amount (252 mg) of the additive to be measured was weighed into an ampoule tube for measurement of the micro heat of solution.
# (3) The neck of the ampoule tube was heated sufficiently by a gas burner so as to seal the ampoule tube.
# 3. 50 g of the prepared solvent liquid or the concentrated solution was weighed into a measuring vessel. This amount was selected as an amount sufficient to immerse the ampoule tube in the solvent liquid when set in the measuring instrument.
# 4. The ampoule tube was set in the measuring instrument, which was equipped with an ampoule sealing mechanism, the measuring vessel was hermetically sealed with the ampoule sealing mechanism after confirming that the ampoule tube was immersed in the solvent liquid, it was placed in a constant temperature bath (26.0° C.), and stirring was started.
# 5. After confirming that the measuring instrument placed in the constant temperature bath had reached equilibrium temperature (about 8 to 12 hours) the ampoule tube was broken so as to mix the additive with the solvent liquid or the concentrated solution.
# 6. The total amount of heat generated was recorded.
# 7. The Joule's heat generated was measured by applying a known voltage to the measurement system for an appropriate time, and the recorded chart area for each measurement cell was calibrated using a known amount of heat.
# 8. The heat of solution of the sample was calculated from the Joule's heat and the measured sample area.
# Shown in Table 11 are the solvent composition (wt %) and the solids composition (parts by weight) of the mother liquor when measuring the heat of solution, the type of retardation control agent sealed in the ampoule tube (Example Compounds I-(51) or I-(2)), and the results of measurement of the heat of solution.
# The identification symbols of elements constituting the system are as follows: a denotes triacetylcellulose/plasticizer, b denotes triacetylcellulose, and c denotes plasticizer. For example, 2-87a denotes that the retardation control agent is the Example Compound I-(2), the solvent composition (wt %) is dichloromethane/methanol=87/13, and the solids constituting the system are triacetylcellulose and the plasticizer.
# The heat of solution ΔH0 denotes the heat of solution (heat absorption) generated when there is no solid in the system (before breaking the ampoule tube) and the retardation control agent is dissolved in a solvent alone. […] The solids concentration of the system when saturation starts is defined as the saturation heat of solution solids concentration (wt %).
# In all cases, when the solids concentration of the system is increased, the heat of solution either remains unchanged from that at a solids concentration of 0 wt % (the saturation heat of solution solids concentration is 0) or decreases and becomes saturated. […] This degree of stabilization is expressed as ΔH0−ΔHs, which is the decrease in the heat of solution.
# [4] = 87/13, solids b: triacetylcellulose only
# [5] = 87/13, solids c: plasticizer only
compound,measurement,setting,value
COc1ccc(Nc2nc(Nc3cccc(C)c3)nc(Nc3cccc(C)c3)n2)cc1 [Example Compound I-(2)],Ratio S1/S0,"[1]; 20° C., 87/13 vs 74/26",0.636
same,Solubility S0 (solids weight concentration at the dissolution limit),[1]; 20° C.,27.5 wt %
same,Ratio S1/S0,"[1]; 25° C., 87/13 vs 74/26",0.636
same,Difference S0 − S1,"[1]; 35° C., 87/13 vs 74/26",10 wt %
same,Ratio S1/S0,"[1]; 35° C., 87/13 vs 74/26",0.692
same,Solubility S1 (solids weight concentration at the dissolution limit),"[1]; 35° C., CH2Cl2/CH3OH 74/26",22.5 wt %
same,Solubility S0 (solids weight concentration at the dissolution limit),[1]; 35° C.,32.5 wt %
same,Solubility in dichloromethane/methanol mixed solvent (in words),[2]; 20° C. and 35° C.,excellent
same,Difference S0 − S1,"[2]; 20° C., 87/13 vs 74/26",10 wt %
same,Difference S0 − S1,"[2]; 20° C., 92/8 vs 91/9",0 wt %
same,Ratio S1/S0,"[2]; 20° C., 92/8 vs 91/9",1.000
same,Solubility S1 (solids weight concentration at the dissolution limit),"[2]; 20° C., CH2Cl2/CH3OH 74/26",17.5 wt %
same,Solubility S1 (solids weight concentration at the dissolution limit),"[2]; 20° C., CH2Cl2/CH3OH 91/9",32.5 wt %
same,Solubility S0 (solids weight concentration at the dissolution limit),"[2]; 20° C., CH2Cl2/CH3OH 92/8",32.5 wt %
same,Difference S0 − S1,"[2]; 25° C., 87/13 vs 74/26",10 wt %
same,Difference S0 − S1,"[2]; 25° C., 92/8 vs 91/9",0 wt %
same,Ratio S1/S0,"[2]; 25° C., 92/8 vs 91/9",1.000
same,Solubility S1 (solids weight concentration at the dissolution limit),"[2]; 25° C., CH2Cl2/CH3OH 74/26",17.5 wt %
same,Solubility S0 (solids weight concentration at the dissolution limit),"[2]; 25° C., CH2Cl2/CH3OH 87/13",27.5 wt %
same,Solubility S1 (solids weight concentration at the dissolution limit),"[2]; 25° C., CH2Cl2/CH3OH 91/9",32.5 wt %
same,Solubility S0 (solids weight concentration at the dissolution limit),"[2]; 25° C., CH2Cl2/CH3OH 92/8",32.5 wt %
same,Difference S0 − S1,"[2]; 35° C., 92/8 vs 91/9",0 wt %
same,Ratio S1/S0,"[2]; 35° C., 92/8 vs 91/9",1.000
same,Solubility S1 (solids weight concentration at the dissolution limit),"[2]; 35° C., CH2Cl2/CH3OH 91/9",32.5 wt %
same,Solubility S0 (solids weight concentration at the dissolution limit),"[2]; 35° C., CH2Cl2/CH3OH 92/8",32.5 wt %
same,Degree of stabilization (ΔH0 − ΔHs),"[3]; 50/50, solids a",0 kcal/mol
same,Saturation heat of solution solids concentration,"[3]; 50/50, solids a",0 wt %
same,Heat of solution ΔHs,"[3]; 50/50, solids a: triacetylcellulose/plasticizer",6.16 kcal/mol
same,Degree of stabilization (ΔH0 − ΔHs),"[3]; 74/26, solids a",0 kcal/mol
same,Saturation heat of solution solids concentration,"[3]; 74/26, solids a",0 wt %
same,Heat of solution ΔHs,"[3]; 74/26, solids a: triacetylcellulose/plasticizer",6.97 kcal/mol
same,Degree of stabilization (ΔH0 − ΔHs),"[3]; 87/13, solids a: triacetylcellulose/plasticizer",1.4 kcal/mol
same,Heat of solution ΔHs,"[3]; 87/13, solids a: triacetylcellulose/plasticizer (TPP/BDP)",6.1 kcal/mol
same,Degree of stabilization (ΔH0 − ΔHs),[3]; [4],2 kcal/mol
same,Heat of solution ΔHs,[3]; [4],5.5 kcal/mol
same,Degree of stabilization (ΔH0 − ΔHs),[3]; [5],1.1 kcal/mol
same,Heat of solution ΔHs,[3]; [5],6.4 kcal/mol
same,Degree of stabilization (ΔH0 − ΔHs),"[3]; 92/8, solids a",1.38 kcal/mol
same,Saturation heat of solution solids concentration,"[3]; 92/8, solids a",7 wt %
same,Heat of solution ΔHs,"[3]; 92/8, solids a: triacetylcellulose/plasticizer",5.83 kcal/mol
same,Degree of stabilization (ΔH0 − ΔHs),"[3]; 100/0, solids a",1.35 kcal/mol
same,Saturation heat of solution solids concentration,"[3]; 100/0, solids a",10 wt %
same,Heat of solution ΔHs,"[3]; 100/0, solids a: triacetylcellulose/plasticizer",5.29 kcal/mol
same,Degree of stabilization,"[3]; dope Table 12, solvent composition 87/13",1.40 kcal/mol
same,Degree of stabilization,"[3]; dope Table 13, solvent composition 92/8",1.38 kcal/mol
same,Degree of stabilization,"[3]; dope Table 14, solvent composition 74/26",0 kcal/mol
same,Stabilization by solids in the system (in words),[3]; case c: only the plasticizer present in the system,is stabilized
same,Heat of solution ΔH0,[3]; dichloromethane/methanol 50/50 wt %,6.16 kcal/mol
same,Heat of solution ΔH0,[3]; dichloromethane/methanol 74/26 wt %,6.97 kcal/mol
same,Heat of solution ΔH0,[3]; dichloromethane/methanol 87/13 wt %,7.5 kcal/mol
same,Heat of solution ΔH0,[3]; dichloromethane/methanol 92/8 wt %,7.21 kcal/mol
same,Heat of solution ΔH0,[3]; dichloromethane/methanol 100/0 wt %,6.64 kcal/mol

# — patent US20060051526A1, “Process for producing cellulose acylate film” (Fuji Photo Film Co., Ltd., priority 2002, published 2006)
